Data on 16 molecules can be found in US12187728B2 (Raze Therapeutics, Inc., priority 2015, dated 2025).

This assay deals with T1, Human MTHFD2 (Homo sapiens, UniProt P13995).
T1 construct: residues 36-350 in Uniport ID P13995; His6 (N); made in house; host or cells: E. coli
T1 sequence (P13995 36-350): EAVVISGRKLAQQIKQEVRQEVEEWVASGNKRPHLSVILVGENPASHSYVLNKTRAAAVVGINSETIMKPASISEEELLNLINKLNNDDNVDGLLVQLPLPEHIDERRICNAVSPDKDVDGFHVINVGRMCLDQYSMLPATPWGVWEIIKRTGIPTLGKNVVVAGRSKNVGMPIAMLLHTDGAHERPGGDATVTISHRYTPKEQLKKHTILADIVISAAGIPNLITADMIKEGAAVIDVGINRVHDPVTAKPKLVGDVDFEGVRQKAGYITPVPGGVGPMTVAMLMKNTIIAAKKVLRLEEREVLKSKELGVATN
Description: MTHFD2 Activity Assay (dehydrogenase activity, diaphorase/resazurin coupled fluorescence). Type of assay: biochemical. Conditions: inhibitory activity (IC50 and/or binding constant); 0.2 nM MTHFD2, 11 concentrations. The essentials:
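Resorufin fluorescence (ex 525, em 598 nm) reports NADH formed by the dehydrogenase via diaphorase coupling. Enzyme (0.2 nM, residues 36-350, N-His6) sat with compound 15 min before 70 μM CH2-THF and 1 mM NAD+ started a 30 min reaction. IC50s come from 4-parameter fits over 11 concentrations.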
(Resazurin is reduced to fluorescent resorufin, in cell work by metabolically active cells.)
As a reminder, the IC50 is the point on the concentration scale where inhibition reaches its midpoint. A higher IC50 goes with weaker potency. Take `Cn1c(C(N)C(CO)CO)nc2c1c(=O)n(Cc1cc3c(Cl)cccc3[nH]1)c(=O)n2C` (stereo not shown) [Example 465, 8-[1-amino-3-hydroxy-2-(hydroxymethyl)propyl]-1-[(4-chloro-1H-indol-2-yl)methyl]-3,7-dimethyl-purine-2,6-dione]: the IC50 fell in the range of 10 to 1000 nM.

Turning to `Cn1c(Nc2ccncc2)nc2c1c(=O)n(Cc1cc3c(Cl)cccc3[nH]1)c(=O)n2C1CC1` [Example 466, 1-[(4-chloro-1H-indol-2-yl)methyl]-3-cyclopropyl-7-methyl-8-(4-pyridylamino)purine-2,6-dione], the IC50 was in the range of 10 to 1000 nM. `Cn1c(C(N)C2COC2)nc2c1c(=O)n(Cc1cc3c(Cl)cccc3[nH]1)c(=O)n2C` (stereo not shown) [Example 467, 8-[amino(oxetan-3-yl)methyl]-1-[(4-chloro-1H-indol-2-yl)methyl]-3,7-dimethyl-purine-2,6-dione] had an IC50 of 5000 to 10000 nM.

With `Cn1c(/C(=N/O)c2ccncc2)nc2c1c(=O)n(Cc1cc3c(Cl)cccc3[nH]1)c(=O)n2C` [Example 468, (E)-1-((4-chloro-1H-indol-2-yl)methyl)-8-((hydroxyimino)(pyridin-4-yl)methyl)-3,7-dimethyl-1H-purine-2,6(3H,7H)-dione or (Z)-1-((4-chloro-1H-indol-2-yl)methyl)-8-((hydroxyimino)(pyridin-4-yl)methyl)-3,7-dimethyl-1H-purine-2,6(3H,7H)-dione], the IC50 lay in the range of 10 to 1000 nM. Take `Cn1c(Nc2ccnc(CN)n2)nc2c1c(=O)n(Cc1cc3c(Cl)cccc3[nH]1)c(=O)n2C` [Example 469, 8-(2-(aminomethyl)pyrimidin-4-ylamino)-1-((4-chloro-1H-indol-2-yl)methyl)-3,7-dimethyl-1H-purine-2,6(3H,7H)-dione]: the IC50 lay in the range of 10 to 1000 nM. To `Cn1c([C@H](N)Cc2cccnc2)nc2c1c(=O)n(Cc1cc3c(Cl)cccc3[nH]1)c(=O)n2C` [Example 470, (R)-8-(1-amino-2-(pyridin-3-yl)ethyl)-1-((4-chloro-1H-indol-2-yl)methyl)-3,7-dimethyl-1H-purine-2,6(3H,7H)-dione] belongs 10 to 1000 nM; to `Cn1c([C@H](N)Cc2ccccn2)nc2c1c(=O)n(Cc1cc3c(Cl)cccc3[nH]1)c(=O)n2C` [Example 472, (R)-8-(1-amino-2-(pyridin-2-yl)ethyl)-1-((4-chloro-1H-indol-2-yl)methyl)-3,7-dimethyl-1H-purine-2,6(3H,7H)-dione], 10 to 1000 nM. As for `Cn1c(C(N)c2ccccn2)nc2c1c(=O)n(Cc1cc3c(Cl)cccc3[nH]1)c(=O)n2C` (stereo not shown) [Example 473, 8-(amino(pyridin-2-yl)methyl)-1-((4-chloro-1H-indol-2-yl)methyl)-3,7-dimethyl-1H-purine-2,6(3H,7H)-dione], the figure is 10 to 1000 nM; as for `Cn1c(Nc2ccncc2)nc2c1c(=O)n(Cc1cc3c(Cl)ccc(F)c3[nH]1)c(=O)n2C` [Example 474, 1-((4-chloro-7-fluoro-1H-indol-2-yl)methyl)-3,7-dimethyl-8-(pyridin-4-ylamino)-1H-purine-2,6(3H,7H)-dione], 10 to 1000 nM; as for `Cc1cc(Nc2nc3c(c(=O)n(Cc4cc5c(Cl)cccc5[nH]4)c(=O)n3C)n2C)nc(CCC(N)=O)n1` [Example 475, 3-(4-(1-((4-chloro-1H-indol-2-yl)methyl)-3,7-dimethyl-2,6-dioxo-2,3,6,7-tetrahydro-1H-purin-8-ylamino)-6-methylpyrimidin-2-yl)propanamide], 10 to 1000 nM. With `Cn1c(=O)n(Cc2cc3c(Cl)cccc3[nH]2)c(=O)c2c1nc1n2CCNC1` [Example 476, 3-((4-chloro-1H-indol-2-yl)methyl)-1-methyl-6,7,8,9-tetrahydropyrazino[1,2-f]purine-2,4(1H,3H)-dione], the IC50 lay within 10 to 1000 nM.

Take `Cn1c(Nc2ccncc2)nc2c1c(=O)n(Cc1cc3c(Cl)ccc(Cl)c3[nH]1)c(=O)n2C` [Example 477, 1-((4,7-dichloro-1H-indol-2-yl)methyl)-3,7-dimethyl-8-(pyridin-4-ylamino)-1H-purine-2,6(3H,7H)-dione]: the IC50 lay within 10 to 1000 nM.

`C/C(=N\O)c1nc2c(c(=O)n(Cc3cc4c(Cl)cccc4[nH]3)c(=O)n2C)n1C` [Example 478, (E)-1-((4-chloro-1H-indol-2-yl)methyl)-8-(1-(hydroxyimino)ethyl)-3,7-dimethyl-1H-purine-2,6(3H,7H)-dione or (Z)-1-((4-chloro-1H-indol-2-yl)methyl)-8-(1-(hydroxyimino)ethyl)-3,7-dimethyl-1H-purine-2,6(3H,7H)-dione] gave an IC50 of 10 to 1000 nM. `Cn1c(C(C(N)=O)c2ccncc2)nc2c1c(=O)n(Cc1cc3c(Cl)cccc3[nH]1)c(=O)n2C` (stereo not shown) [Example 480, 2-(1-((4-chloro-1H-indol-2-yl)methyl)-3,7-dimethyl-2,6-dioxo-2,3,6,7-tetrahydro-1H-purin-8-yl)-2-(pyridin-4-yl)acetamide] gave an IC50 of 10 to 1000 nM. `C/C(=N/O)c1nc2c(c(=O)n(Cc3cc4c(Cl)cccc4[nH]3)c(=O)n2C)n1C` [Example 481, (Z)-1-((4-chloro-1H-indol-2-yl)methyl)-8-(1-(hydroxyimino)ethyl)-3,7-dimethyl-1H-purine-2,6(3H,7H)-dione or (E)-1-((4-chloro-1H-indol-2-yl)methyl)-8-(1-(hydroxyimino)ethyl)-3,7-dimethyl-1H-purine-2,6(3H,7H)-dione] returned an IC50 of 10 to 1000 nM. As to `CC(CN)c1nc2c(c(=O)n(Cc3cc4c(Cl)cccc4[nH]3)c(=O)n2C)n1C` (stereo not shown) [Example 485, 8-(1-aminopropan-2-yl)-1-((4-chloro-1H-indol-2-yl)methyl)-3,7-dimethyl-1H-purine-2,6(3H,7H)-dione], the IC50 was in the range of 10 to 1000 nM.
